# Laboratory results from patent US8003785B2 (Takeda Pharmaceutical Company Limited, priority 2008, dated 2011).
# pIC50: −log10 of the molar value.
# Biological target: T1, PLK1 (Homo sapiens, UniProt P53350)
# T1 construct: Full-length, active GST-PLK1 is purified from Sf9 insect cells; made in house; host or cells: Sf9 insect cells
# Assay: Biochemical Characterization Assay: HTRF kinase assay, GST-PLK1 phosphorylation of GST-p53
# Details: GST-PLK1, GST-p53 substrate
# Outline: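 Full-length active GST-PLK1 (Sf9, 3 ug/mL) phosphorylated full-length GST-p53 (E. coli) in Kinase Assay Buffer for 35 min at 37 °C. Stopped with EDTA; phospho-p53 detected by HTRF with anti-phospho-p53, Eu-anti-rabbit and APC-anti-GST antibodies.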
# T1 sequence (P53350 whole entry): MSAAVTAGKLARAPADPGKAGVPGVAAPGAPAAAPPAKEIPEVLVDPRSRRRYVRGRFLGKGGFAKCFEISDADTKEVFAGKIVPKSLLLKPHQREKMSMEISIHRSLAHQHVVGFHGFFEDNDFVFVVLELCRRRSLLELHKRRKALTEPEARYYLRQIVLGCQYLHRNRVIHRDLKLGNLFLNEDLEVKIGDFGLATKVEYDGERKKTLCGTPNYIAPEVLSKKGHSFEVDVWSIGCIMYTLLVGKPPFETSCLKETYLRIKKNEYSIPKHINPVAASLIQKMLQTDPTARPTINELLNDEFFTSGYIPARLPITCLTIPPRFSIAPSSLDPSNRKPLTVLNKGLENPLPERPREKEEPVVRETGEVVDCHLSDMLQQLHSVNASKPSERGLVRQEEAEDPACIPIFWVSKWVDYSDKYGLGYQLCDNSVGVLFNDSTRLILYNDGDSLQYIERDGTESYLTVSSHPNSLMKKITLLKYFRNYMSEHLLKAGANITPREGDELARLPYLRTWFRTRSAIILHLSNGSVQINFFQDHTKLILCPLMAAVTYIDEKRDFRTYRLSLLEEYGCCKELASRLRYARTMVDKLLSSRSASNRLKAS
row,Compound,pIC50
1,CN1CCC(NC(=O)c2ccc(Nc3ncc4c(n3)N(C3CCCC3)CC(F)(F)C(=O)N4C)c(F)c2F)CC1 [Example I-243],7.30 to 9.00
2,"CNC(=O)c1ccc(Nc2ncc3c(n2)N(C2CCCCC2)CC(F)(F)C(=O)N3C)cc1 [Example I-258, 4-(9-cyclohexyl-7,7-difluoro-5-methyl-6-oxo-6,7,8,9-tetrahydro-5H-pyrimido[4,5-b][1,4]diazepin-2-ylamino)-N-methyl-benzamide]",7.30 to 9.00
3,"CCN1CCC(NC(=O)c2cc(F)c(Nc3ncc4c(n3)N(C3CCCC3)CC(F)(F)C(=O)N4C)cc2F)CC1 [Example I-234, 4-(9-cyclopentyl-7,7-difluoro-5-methyl-6-oxo-6,7,8,9-tetrahydro-5H-pyrimido[4,5-b][1,4]diazepin-2-ylamino)-N-(1-ethyl-piperidin-4-yl)-2,5-difluoro-benzamide]",7.30 to 9.00
4,"CCc1cc(C(=O)NC)ccc1Nc1ncc2c(n1)N(C1CCCC1)CC(F)(F)C(=O)N2C [Example I-200, 4-(9-cyclopentyl-7,7-difluoro-5-methyl-6-oxo-6,7,8,9-tetrahydro-5H-pyrimido[4,5-b][1,4]diazepin-2-ylamino)-3-ethyl-N-methyl-benzamide]",7.30 to 9.00
5,"COc1cc(C(=O)NCCCN(C)C)ccc1Nc1ncc2c(n1)N([C@@H]1C[C@H]1c1ccccc1)CC(F)(F)C(=O)N2C (relative stereo) [Example I-290, 4-[7,7-difluoro-5-methyl-6-oxo-9-(trans-2-phenyl-cyclopropyl)-6,7,8,9-tetrahydro-5H-pyrimido[4,5-b][1,4]diazepin-2-ylamino]-N-(3-dimethylamino-propyl)-3-methoxy-benzamide]",6.30 to 7.29
6,"CN(C)CCCNC(=O)c1ccc(Nc2ncc3c(n2)N(C2CCCCC2)CC(F)(F)C(=O)N3C)cc1 [Example I-265, 4-(9-cyclohexyl-7,7-difluoro-5-methyl-6-oxo-6,7,8,9-tetrahydro-5H-pyrimido[4,5-b][1,4]diazepin-2-ylamino)-N-(3-dimethylamino-propyl)-benzamide]",7.30 to 9.00

# Same assay, conditions: GST-PLK1, GST-p53 substrate, ATP
row,Compound,pIC50
1,"COc1cc(C(=O)NCCN(C)C)ccc1Nc1ncc2c(n1)N(C1CCCC1)CC(F)(F)C(=O)N2C [Example I-52, 4-(9-cyclopentyl-7,7-difluoro-5-methyl-6-oxo-6,7,8,9-tetrahydro-5H-pyrimido[4,5-b][1,4]diazepin-2-ylamino)-N-(2-dimethylamino-ethyl)-3-methoxy-benzamide]",7.30 to 9.00
2,"CCCN1C(=O)C(F)(F)CN(C2CCCC2)c2nc(Nc3ccc(C(=O)NC)cc3)ncc21 [Example I-146, 4-(9-cyclopentyl-7,7-difluoro-6-oxo-5-propyl-6,7,8,9-tetrahydro-5H-pyrimido[4,5-b][1,4]diazepin-2-ylamino)-N-methyl-benzamide]",5.30 to 6.30
3,"COc1cc(C(=O)NCCCO)ccc1Nc1ncc2c(n1)N(C1CCCC1)CC(F)(F)C(=O)N2C [Example I-41, 4-(9-cyclopentyl-7,7-difluoro-5-methyl-6-oxo-6,7,8,9-tetrahydro-5H-pyrimido[4,5-b][1,4]diazepin-2-ylamino)-N-(3-hydroxy-propyl)-3-methoxy-benzamide]",7.30 to 9.00
4,"COc1cc(C(=O)NC2CCOCC2)ccc1Nc1ncc2c(n1)N(C1CCC1)CC(F)(F)C(=O)N2C [Example I-7, 4-(9-cyclobutyl-7,7-difluoro-5-methyl-6-oxo-6,7,8,9-tetrahydro-5H-pyrimido[4,5-b][1,4]diazepin-2-ylamino)-3-methoxy-N-(tetrahydro-pyran-4-yl)-benzamide]",7.30 to 9.00
5,"COc1cc(C(=O)NCCN)ccc1Nc1ncc2c(n1)N(C1CCCC1)CC(F)(F)C(=O)N2C [Example I-48, N-(2-amino-ethyl)-4-(9-cyclopentyl-7,7-difluoro-5-methyl-6-oxo-6,7,8,9-tetrahydro-5H-pyrimido[4,5-b][1,4]diazepin-2-ylamino)-3-methoxy-benzamide]",7.30 to 9.00
